Laboratory results reported in publication PMC7322046 (Heliyon, 2020).

Tests used:
[1] = target: Human recombinant DPP4 (Homo sapiens, UniProt P27487); test: DPP4 inhibition assay; format: biochemical; conditions: test tripeptide 10 μg/ml; 100 μM Gly-Pro-AMC, 37 °C, 30 min, pH 8.0
[2] = system: human dipeptidyl peptidase IV (DPP4); conditions: dipeptides; cited from earlier work

Sequence of Human recombinant DPP4 (P27487 whole entry): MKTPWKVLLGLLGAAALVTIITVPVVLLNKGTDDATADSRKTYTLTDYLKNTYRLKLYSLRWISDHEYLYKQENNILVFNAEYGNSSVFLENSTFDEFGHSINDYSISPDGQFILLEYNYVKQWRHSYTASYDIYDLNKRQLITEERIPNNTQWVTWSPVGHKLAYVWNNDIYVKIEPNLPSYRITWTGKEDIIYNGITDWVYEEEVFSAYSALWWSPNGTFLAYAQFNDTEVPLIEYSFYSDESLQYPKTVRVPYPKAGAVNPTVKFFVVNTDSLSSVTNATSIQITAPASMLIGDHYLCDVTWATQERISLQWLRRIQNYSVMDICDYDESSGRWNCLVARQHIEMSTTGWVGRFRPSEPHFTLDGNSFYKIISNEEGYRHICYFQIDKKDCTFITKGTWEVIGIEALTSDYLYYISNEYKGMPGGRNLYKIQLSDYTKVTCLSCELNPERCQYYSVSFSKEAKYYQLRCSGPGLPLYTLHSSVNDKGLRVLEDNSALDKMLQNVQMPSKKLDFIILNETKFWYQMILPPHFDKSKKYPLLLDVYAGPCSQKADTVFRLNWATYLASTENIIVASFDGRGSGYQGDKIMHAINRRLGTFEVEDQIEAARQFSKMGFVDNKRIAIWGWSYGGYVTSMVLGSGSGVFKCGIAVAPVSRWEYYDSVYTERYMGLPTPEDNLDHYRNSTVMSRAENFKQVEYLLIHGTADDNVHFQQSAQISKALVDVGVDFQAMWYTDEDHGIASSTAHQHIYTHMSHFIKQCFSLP

Row | inhibition ratio [1] | Substance | DPP4 inhibitory activity (in words) [2]
1 | 31.0% | Val-Pro-Leu [VPL] | –
2 | – | Val-Pro | high inhibitory activity
3 | – | Ile-Pro | high inhibitory activity
